This passage reports mortality and pest or weed control results from patent publication US12583851B2, “Heteroaryl-substituted pyrazine derivatives as pesticides” (Elanco Animal Health GmbH, priority 2019, dated 2026).

Molecules are shown by their SMILES.

The mortality is the share of the test organisms that died.

Holding throughout (type): in vivo
For test [1], the system named is adult unfed cat fleas (Ctenocephalides felis). The test is described as follows: Ctenocephalides felis oral test. The note with it: 48 h, 100 ppm in citrated cattle blood, after 2 days. The method in brief: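 About 20 adult unfed cat fleas fed through parafilm on citrated cattle blood containing compound (from a DMSO concentrate). Blood held at 37° C, fleas at room temperature. Mortality in % scored after 2 days.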

Test [2] concerns adult engorged female ticks (Rhipicephalus microplus). The test is described as follows: Rhipicephalus (Boophilus) microplus injection test. Conditions: 168 h, 4 μg/animal, egg deposition after 7 days, read-out: efficacy (infertile eggs). The method in brief: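 Compound in DMSO (10 mg per 0.5 mL, then diluted with DMSO to test concentration); 1 μL injected into the abdomen of each of five engorged females, then held in a climate chamber. Fertile egg deposition checked at 7 days; efficacy 100% = all eggs infertile, 0% = all fertile.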

Test [3] has as its system fall armyworm larvae (Spodoptera frugiperda). The test is described as follows: Spodoptera frugiperda spray test. The note with it: 168 h, maize leaf sections, after 7 days. The method, boiled down: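 Percent larval kill read at day 7, from 0% (no caterpillars dead) to 100% (all dead). Larvae were placed on dried Zea mays leaf discs previously sprayed with test preparations made from an acetone/DMF solution diluted in 1000 ppm emulsifier-containing water.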

Test [4] deals with green peach aphid (Myzus persicae). The test is described as follows: Myzus persicae spray test. The note with it: foliar, 120 h, Chinese cabbage leaf disks, after 5 days. On the procedure:
Myzus persicae—Spray Test
Solvent: 78.0 parts by weight acetone • 1.5 parts by weight dimethylformamide
Emulsifier: alkylarylpolyglycol ether
To produce a suitable preparation of active compound, 1 part by weight of active compound is mixed with the stated amount of solvents and is diluted with water, containing an emulsifier concentration of 1000 ppm, to the desired concentration. Further test concentrations are prepared by dilution with emulsifier containing water.
Chinese cabbage (Brassica pekinensis) leaf disks infected with all instars of the green peach aphid (Myzus persicae), are sprayed with a preparation of the active ingredient of the desired concentration.
(§1) After 5 days mortality in % is determined. 100% means all aphids have been killed and 0% means none of the aphids have been killed.

For test [5] the test system is unchanged. Briefly: Myzus persicae oral test. The note with it: 120 h, 0.8 ppm, after 5 days. The procedure:
Solvent: 100 parts by weight acetone
To produce a suitable preparation of active compound, 1 part by weight of active compound is mixed with the stated amount of solvent, and the concentrate is diluted with water to the desired concentration.
50 μL compound solution is filled in microtiter plates and 150 μL IPL41 insect medium (33%+15% sugar) is added to obtain a total volume of 200 μL per well. Afterwards the plates are sealed with parafilm through which a mixed population of the green peach aphid (Myzus persicae) can suck on the compound preparation.
as §1

In test [6] the test system is adult mosquitoes Anopheles funestus strain FUMOZ-R. The test is described as follows: Anopheles funestus test (ANPHFU surface treatment & contact assay). Conditions: surface concentration 20 mg/m^2, 30 minutes exposure, 24 hours after contact, read-out: mortality (efficacy). The procedure: Anopheles funestus Test (ANPHFU Surface Treatment & Contact Assay)
(§2) Solvent: Aceton+2000 ppm rapeseed oil methyl ester (RME)
In order to produce a sufficient, active ingredient containing solution it is necessary to solve the test compound in the solvent-mix (acetone at 2 mg/ml/RME 2000 ppm). This solution is pipetted onto a glazed tile and after evaporation of the acetone, adult mosquitoes of the species Anopheles funestus strain FUMOZ-R (Hunt et al., Med. Vet. Entomol. 2005 Sep. 19(3): 271-275) are placed onto the dried surface. The exposure time is 30 minutes.
(§3) Mortality in percent (%) is determined 24 hours after contact of the insects to the treated surface. 100% mortality means that all tested insects are dead, whereas 0% means that no insect died.

In test [7] the test system is adult Blattella germanica strain PAULINIA
Briefly: Blattella germanica test (BLTTGE surface treatment & contact assay). The note with it: surface concentration 20 mg/m^2, 30 minutes exposure, 24 hours after contact, read-out: mortality (efficacy). The procedure: Blattella germanica Test (BLTTGE Surface Treatment & Contact Assay)
as §2
In order to produce a sufficient, active ingredient containing solution it is necessary to solve the test compound in the solvent-mix (acetone at 2 mg/ml/RME 2000 ppm). This solution is pipetted onto a glazed tile and after evaporation of the acetone, adult animals of the species Blattella germanica strain PAULINIA are placed onto the dried surface. The exposure time is 30 minutes.
as §3

In test [8] the test system is adult mosquitoes Aedes aegypti strain MONHEIM. Briefly: Aedes aegypti test (AEDSAE surface treatment & contact assay). Conditions: 24 hours after contact, read-out: mortality (efficacy); for mortality at 4 mg/m2: surface concentration 4 mg/m^2, 30 minutes exposure; for mortality at 20 mg/m2: surface concentration 20 mg/m^2, 30 minutes exposure. On the procedure: Aedes aegypti Test (AEDSAE Surface Treatment & Contact Assay)
as §2
In order to produce a sufficient, active ingredient containing solution it is necessary to solve the test compound in the solvent-mix (acetone at 2 mg/ml/RME 2000 ppm). This solution is pipetted onto a glazed tile and after evaporation of the acetone, adult mosquitoes of the species Aedes aegypti strain MONHEIM are placed onto the dried surface. The exposure time is 30 minutes.
as §3

Test [9] has as its system Rhipicephalus (Boophilus) microplus larvae (strain Parkhurst, resistant against synthetic pyrethroids). The test is described as follows: Rhipicephalus (Boophilus) microplus in-vitro contact test, larval cattle tick. Conditions: after 48 hours, read-out: efficacy (larvae dead or moribund); for pest or weed control at 1 µg/cm2, 100 g/ha: 1 μg/cm^2 (=100 g/ha); for pest or weed control at 5 µg/cm2, 500 g/ha: 5 μg/cm^2 (=500 g/ha). The method in brief:
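Pyrethroid-resistant larvae (strain Parkhurst), 20–50 per tube, exposed by contact to a dried acetone film of compound (5 μg/cm² at 900 ppm) for 48 h at 27 °C and 85% humidity. Percent dead or moribund larvae scored from negative geotactic behaviour.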

`CC(NC(=O)c1cc(Cl)cc(C(F)(F)F)c1)c1nccnc1-c1ncccn1` (racemic) [Example I-10, (rac)-3-Chloro-N-(1-(3-(pyrimidin-2-yl)pyrazin-2-yl)ethyl)-5-(trifluoromethyl)benzamide] gave a mortality at 100 ppm in test [1] of 100%. For the same compound, the pest or weed control at 0.004 mg in [2] was found to be 100%. Moreover, the mortality at 100 g/ha in test [3] and in [4] was 100% in each case. Also, the mortality at 0.8 ppm in [5] was 90%. Moreover, the mortality at 20 mg/m2 in test [6], in [7] and in test [8] was 80 to 100% throughout. In [8], the mortality at 4 mg/m2 was 80 to 100%. Further, the pest or weed control at 1 µg/cm2, 100 g/ha in [9] was 90%. For the same compound, the pest or weed control at 5 µg/cm2, 500 g/ha in [9] was determined as 80%.
Turning to `CC(NC(=O)c1cc(C(F)(F)F)cc(C(F)(F)F)c1)c1nccnc1-c1ncccn1` (racemic) [Example I-8, (rac)-N-(1-(3-(Pyrimidin-2-yl)pyrazin-2-yl)ethyl)-3,5-bis(trifluoromethyl)benzamide], the mortality at 100 ppm in [1] was found to be 100%. The pest or weed control at 0.004 mg in test [2] came out at 100%. The mortality at 100 g/ha in test [3] and in [4] was 100% each time. The mortality at 0.8 ppm in [5] came out at 100%. Moreover, the mortality at 20 mg/m2 in test [6], in test [7] and in [8] was 80 to 100% throughout. The mortality at 4 mg/m2 in test [8] was in the range of 80 to 100%. The pest or weed control at 1 µg/cm2, 100 g/ha in test [9] came to 100%. Also, the pest or weed control at 5 µg/cm2, 500 g/ha in test [9] came out at 100%.
